# The NIST ThermoML archive (doi:10.1016/j.jct.2015.03.022)
# Numbers after ± are expanded uncertainties.
# Details: Crystal; DTA
row,Normal melting temperature,SMILES
1,844 ± 0.6 °C,[F-].[Li+] [lithium fluoride]
2,551 ± 0.6 °C,[Br-].[Li+] [lithium bromide]
3,559 ± 0.6 °C,[Ag][I] [silver iodide]
